The values below come from patent US6737424B2 (Zeneca Ltd., priority 1995, dated 2004).

Read-outs that look alike come from different tables or passages of the source.

For data set [1], the system named is NMDA-induced excitatory response of red nucleus cells. Kind of data set: Red nucleus test (Test B). It is filed as in vivo, rat. Conditions: anesthetized rats. As for the experimental part:
The purpose of this test is to determine the effects of intravenously administered glycine antagonists on the NMDA-induced excitatory response of red nucleus cells.
The procedure for the red nucleus test is as follows. Rats are anesthetized with chloral hydrate (400 mg/kg ip) and the femoral vein is catheterized for iv drug administration. Five-barrel micropipettes are stereotaxically positioned in the red nucleus. Typically, three to four of the five barrels are filled as follows: the recording barrel with 2M potassium citrate, the current balancing barrel with 4M NaCl, the drug barrel with 25 mM NMDA, and another drug barrel with 2.5 mM quisqualic acid (QA is only used in selectivity studies). NMDA is iontophoretically applied with an ejection current that is adjusted depending on the sensitivity of each individual red nucleus cell. The NMDA is cycled on and off (usually 30-60 sec. on and 60-120 sec. off) and the firing rate of the cell during each period is recorded. Once the baseline firing rate of the cell has been established, the test drug is administered iv. The effect of the drug on the NMDA-induced excitatory response of the red nucleus cell can be both qualitatively and quantitatively evaluated from the recordings and the raw data accumulated.

Data set [2] concerns the target T1, glycine receptor of the NMDA receptor complex (Rattus norvegicus, UniProt P35439).
T1 construct: Freshly dissected cortices and hippocampi are homogenized in 0.32 M sucrose; from tissue; host or cells: rat cortex and hippocampus synaptic membranes
Kind of data set: [3H]-glycine binding assay (Test A). An excerpt:
The actions of compounds according to the invention as antagonists at the glycine receptor of the NMDA receptor complex can be shown by one or more standard tests such as the [^3H]-glycine binding assay (Test A) and by in vivo tests such as the red nucleus test (Test B) and the Rat Middle Cerebral Artery test (Test C). These tests confirm that compounds of the invention function as NMDA receptor antagonists in vitro and in vivo. Certain compounds of the invention are potent NMDA receptor antagonists.
In the [^3H]-glycine binding assay, neuronal synaptic membranes are prepared from adult (about 250 g) male Sprague-Dawley rats. Freshly dissected cortices and hippocampi are homogenized in 0.32 M sucrose (110 mg/mL). Synaptosomes are isolated by centrifugation (1000×g, 10 min), the supernatant is pelleted (20,000×g, 20 min) and resuspended in double-distilled water. The suspension was centrifuged for 20 minutes at 8,000×g. The resulting supernatant and buffy coat are washed twice (48,000×g, 10 min) and resuspended in double-deionized water. The final pellet is quickly frozen (dry ice/ethanol bath) under double-deionized water and stored at −70° C.
On the day of the experiment, thawed synaptic membranes are homogenized with a Brinkmann Polytron (Brinkmann Instruments, Westbury, N.Y.) tissue homogenizer in 50 millimolar tris(hydroxymethyl)aminomethane citrate, pH 7.1. The membranes are incubated with 0.04% Sufact-AMPS X100 (Pierce, Rockford, Ill.) in buffer for 20 minutes at 37° C. and washed six times by centrifugation (48,000×g, 10 min) and resuspended in buffer. The final pellet is homogenized at 200 mg wet weight/mL of the buffer for the binding assay.
For [^3H]-glycine binding at the N-methyl-D-aspartate receptor, 20 nanomolar [^3H]-glycine (40-60 Ci/mmol, New England Nuclear, Boston, Mass.) is incubated with the membranes suspended in 50 millimolar tris(hydroxymethyl)aminomethane citrate, pH 7.1 for 30 minutes at 4° C. Glycine, 1 millimolar, is used to define the nonspecific binding. Bound [^3H]-glycine is isolated from free using a Brandel (Biomedical Research and Development Laboratories, Gaithersburg, Md.) cell harvester for vacuum filtration over glass fiber filters (Whatman GF/B from Brandel, Gaithersburg, Md.) presoaked in 0.025% polyethylenimine. The samples retained on the glass fiber filters are rinsed 3 times with a total of 2.5 mL ice cold buffer. Radioactivity is estimated by liquid scintillation counting. IC50 values are obtained from a least-squares regression of a logit-log transformation of the data.

In data set [3] the test system is permanent middle cerebral artery (MCA) occlusion, focal ischemia. The data set can be described thus: Rat Middle Cerebral Artery test (Test C). Conditions: I.V. dose of 20 mgs/kg/hr, SHR rats, 24 hours after MCA/common carotid artery occlusion. It is filed as in vivo. As for the experimental part: Male SHR rats weighing 280-320 g are used for these studies. The method used for permanent middle cerebral artery (MCA) occlusion is as described by Brint et al (1988). […] Following occlusions, drugs are administered intravenously via jugular catheter. Twenty-four hours after MCA/common carotid artery occlusion, the animals are sacrificed and their brains quickly removed. Coronal sections of 1 mm thickness are cut using a vibratome and stained with 2,3,5-triphenyl-2H-tetrazolium chloride (TTC) dye. Following staining, necrotic tissue is readily distinguished from the intact brain and the area of infarcted cortex can be traced on an image analyzer. The infarct volume for each section is quantified with an image analyzer, and the total infarct volume is calculated with a program that summed all interval volume. See S. Brint et al. J. Cerebral Blood Flow 8:474-485 (1988). The statistical analysis of the difference between the volume of ischemic damage in the vehicle control and drug-treated animals is analyzed by Student's t-test. […] For example, the compound of example 4 at an I.V. dose of 20 mgs/kg/hr caused an infarct % volume change of −22%.

What is called melting point is the temperature of the solid-liquid transition. `CC(Cc1ccccc1)n1nc(O)c2[nH]c3cc(Cl)ccc3c(=O)c2c1=O` (stereo not drawn) (hydrate or solvate) [Example 5, 7-chloro-4-hydroxy-2-(1-methyl-2-phenylethyl)-1,2,5,10-tetrahydropyridazino[4,5-b]quinoline-1,10-dione]: the melting point lay in the range of 241 to 244 °C.

Regarding `COC(=O)[C@@H](C)n1nc(O)c2[nH]c3cc(Cl)ccc3c(=O)c2c1=O` (hydrate or solvate) [Example 7, 7-chloro-4-hydroxy-2-[(R)-1-(methyloxycarbonyl)-ethyl]-1,2,5,10-tetrahydropyridazino[4,5-b]quinoline-1,10-dione], the melting point was 262 to 264 °C.

In turn, `COC(=O)C1(Cn2nc(O)c3[nH]c4cc(Cl)ccc4c(=O)c3c2=O)C=CC=CC1` (stereo not drawn) (hydrate or solvate) [Example 8, 7-chloro-4-hydroxy-2-[1-(methyloxycarbonyl)-benzyl]-1,2,5,10-tetrahydropyridazino[4,5-b]quinoline-1,10-dione] showed a melting point of 242 to 244 °C.

Take `O=c1c2ccc(Cl)cc2[nH]c2c(O)nn(CC3(C(F)(F)F)C=CC=CC3)c(=O)c12` (stereo not drawn) (hydrate or solvate) [Example 12, 7-chloro-4-hydroxy-2-(1-trifluoromethylbenzyl)-1,2,5,10-tetrahydropyridazino[4,5-b]quinoline-1,10-dione]: the melting point lay within 237 to 238 °C.

With `C/C(=C\C(N)C(=O)O)CP(=O)(O)O` (stereo not drawn) [CGP 37849], in data set [1] (reference agents, intravenous), the “ID50, red nucleus test” value came out at 1.7 mg/kg iv.

Broadly, the IC50 is the point on the concentration scale where inhibition reaches its midpoint. The compound `CC(C(=O)Nc1ccccc1)n1nc(O)c2[nH]c3cc(Cl)ccc3c(=O)c2c1=O` (stereo not drawn) [Example 1, 7-chloro-4-hydroxy-2-[1-(phenylcarbamoyl)ethyl]-1,2,5,10-tetrahydropyridazino[4,5-b]quinoline-1,10-dione] had a melting point of over 250 °C. In data set [2], this compound yielded an IC50 of 240 nM.

The compound `O=c1c2ccc(Cl)cc2[nH]c2c(O)nn(C3CCCCC3)c(=O)c12` [Example 2, 7-chloro-4-hydroxy-2-cyclohexyl-1,2,5,10-tetrahydropyridazino[4,5-b]quinoline-1,10-dione] showed a melting point of over 100 °C. Further, the IC50 in data set [2] (rat cortex/hippocampus synaptic membranes, 20 nanomolar [3H]-glycine, 30 minutes at 4° C., pH 7.1, read-out: IC50, [3H]-glycine binding) worked out at 120 nM.

In data set [2], `CC(c1ccccc1)n1nc(O)c2[nH]c3cc(Cl)ccc3c(=O)c2c1=O` (stereo not drawn) [Example 3] had an IC50 of 370 nM.

As to `CCCC(C)n1nc(O)c2[nH]c3cc(Cl)ccc3c(=O)c2c1=O` (stereo not drawn) [Example 4, 7-chloro-4-hydroxy-2-(1-methylbutyl)-1,2,5,10-tetrahydropyridazino[4,5-b]quinoline-1,10-dione], the melting point lay within 237 to 239 °C. For the same compound, the “infarct % volume change” value in data set [3] was −22%. Besides, the IC50 in data set [2] amounted to 240 nM. The ID50, red nucleus test in data set [1] (as the meglumine salt (N=3), iv) came to 3.77 mg/kg.

As for `CC(Cc1ccccc1)n1nc(O)c2[nH]c3cc(Cl)ccc3c(=O)c2c1=O` (stereo not drawn) [Example 5, 7-chloro-4-hydroxy-2-(1-methyl-2-phenylethyl)-1,2,5,10-tetrahydropyridazino[4,5-b]quinoline-1,10-dione], the IC50 in data set [2] was found to be 300 nM.

Compound `CC(C)CC(C)n1nc(O)c2[nH]c3cc(Cl)ccc3c(=O)c2c1=O` (stereo not drawn) [Example 6, 7-chloro-4-hydroxy-2-(1,3-dimethylbutyl)-1,2,5,10-tetrahydropyridazino[4,5-b]quinoline-1,10-dione] had a melting point of 238 to 240 °C. For the same compound, in data set [2], the IC50 came out at 290 nM.

In turn, `CC(CC(=O)Nc1ccccc1)n1nc(O)c2[nH]c3cc(Cl)ccc3c(=O)c2c1=O` (stereo not drawn) [Example 10, 7-chloro-4-hydroxy-2-[1-methyl-2-(N-phenylcarbamoyl)ethyl]-1,2,5,10-tetrahydropyridazino[4,5-b]quinoline-1,10-dione] had a melting point of over 250 °C.

`CC(CC(=O)N(C)c1ccccc1)n1nc(O)c2[nH]c3cc(Cl)ccc3c(=O)c2c1=O` (stereo not drawn) [Example 11, 7-chloro-4-hydroxy-2-[1-methyl-2-(N-phenyl-N-methylcarbamoyl)ethyl]-1,2,5,10-tetrahydropyridazino[4,5-b]quinoline-1,10-dione]: the melting point lay in the range of 218 to 219 °C.

`C[C@H](C(=O)O)n1nc(O)c2[nH]c3cc(Cl)ccc3c(=O)c2c1=O` [Example 13, 7-chloro-4-hydroxy-2-[(R)-1-carboxyethyl]-1,2,5,10-tetrahydropyridazino[4,5-b]quinoline-1,10-dione] registered a melting point of over 275 °C.

As to `NC1CCN(O)C1=O` (stereo not drawn) [HA-966], the “ID50, red nucleus test” value in data set [1] (reference agents, intravenous) was determined as 7.9 mg/kg iv.
